Patent US20100137449A1, “SUBSTITUTED 1,3-CYCLOPENTADIONE MULTI-TARGET PROTEIN KINASE MODULATORS OF CANCER, ANGIOGENESIS AND THE INFLAMMATORY PATHWAYS ASSOCIATED THEREWITH” (METAPROTEOMICS, LLC, priority 2007, published 2010)

Assays:
Assay in all cases: KinaseProfiler Assay
CDK1/cyclinB(h) = CDK1/cyclinB(h) (Homo sapiens, UniProt P06493)
CDK9/cyclin T1(h) = CDK9/cyclin T1(h) (Homo sapiens, UniProt P50750)
cKit(h) = cKit(h) (Homo sapiens, UniProt P10721)
EGFR(L861Q)(h) = EGFR(L861Q)(h) (Homo sapiens, UniProt P00533, L861Q)
Fer(h) = Fer(h) (Homo sapiens, UniProt P16591)
Flt3(D835Y)(h) = target: T1, Flt3(D835Y)(h) (Homo sapiens, UniProt P36888, D835Y)
T1 sequence (P36888 27-993 D835Y): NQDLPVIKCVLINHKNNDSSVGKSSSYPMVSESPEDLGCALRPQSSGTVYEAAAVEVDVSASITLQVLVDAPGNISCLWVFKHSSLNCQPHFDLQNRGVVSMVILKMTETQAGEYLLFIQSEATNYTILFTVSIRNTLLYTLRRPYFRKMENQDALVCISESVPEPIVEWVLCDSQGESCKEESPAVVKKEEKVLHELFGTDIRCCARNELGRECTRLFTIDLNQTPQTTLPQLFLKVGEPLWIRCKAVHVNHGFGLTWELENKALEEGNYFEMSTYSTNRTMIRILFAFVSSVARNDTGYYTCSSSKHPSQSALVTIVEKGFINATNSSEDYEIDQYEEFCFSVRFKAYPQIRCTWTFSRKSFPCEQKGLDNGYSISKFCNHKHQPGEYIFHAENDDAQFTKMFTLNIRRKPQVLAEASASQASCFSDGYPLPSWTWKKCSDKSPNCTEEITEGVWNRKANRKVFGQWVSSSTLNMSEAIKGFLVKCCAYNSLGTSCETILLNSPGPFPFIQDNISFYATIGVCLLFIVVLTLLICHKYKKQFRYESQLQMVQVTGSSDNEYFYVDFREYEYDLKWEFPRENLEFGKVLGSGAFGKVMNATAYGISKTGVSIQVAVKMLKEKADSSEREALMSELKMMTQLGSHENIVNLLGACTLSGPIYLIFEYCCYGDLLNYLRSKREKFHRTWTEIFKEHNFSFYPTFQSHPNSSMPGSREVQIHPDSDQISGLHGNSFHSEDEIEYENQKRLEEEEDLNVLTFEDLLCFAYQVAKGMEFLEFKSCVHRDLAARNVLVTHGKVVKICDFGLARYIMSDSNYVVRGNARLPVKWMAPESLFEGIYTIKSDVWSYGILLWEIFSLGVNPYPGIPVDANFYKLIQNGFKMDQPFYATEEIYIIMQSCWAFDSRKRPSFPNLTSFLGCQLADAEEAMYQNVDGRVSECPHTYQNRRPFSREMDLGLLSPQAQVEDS

MSK2(h) = MSK2(h) (Homo sapiens, UniProt O75676)
PKCβII(h) = PKCβII(h) (Homo sapiens, UniProt P05771)
SGK2(h) = target: T2, SGK2(h) (Homo sapiens, UniProt Q9HBY8)
T2 sequence (Q9HBY8 1-367): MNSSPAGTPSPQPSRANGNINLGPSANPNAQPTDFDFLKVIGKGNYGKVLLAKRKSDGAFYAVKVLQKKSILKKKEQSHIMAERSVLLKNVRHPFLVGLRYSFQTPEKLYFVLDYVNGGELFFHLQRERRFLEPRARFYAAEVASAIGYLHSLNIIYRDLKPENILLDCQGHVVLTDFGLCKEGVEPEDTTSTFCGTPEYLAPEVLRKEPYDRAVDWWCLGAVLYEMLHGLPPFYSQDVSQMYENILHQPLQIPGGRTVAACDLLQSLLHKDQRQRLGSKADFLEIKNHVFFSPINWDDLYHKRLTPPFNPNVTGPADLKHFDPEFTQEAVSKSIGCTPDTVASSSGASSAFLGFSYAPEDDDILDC

TSSK2(h) = target: T3, TSSK2(h) (Homo sapiens, UniProt Q96PF2)
T3 sequence (Q96PF2 1-358): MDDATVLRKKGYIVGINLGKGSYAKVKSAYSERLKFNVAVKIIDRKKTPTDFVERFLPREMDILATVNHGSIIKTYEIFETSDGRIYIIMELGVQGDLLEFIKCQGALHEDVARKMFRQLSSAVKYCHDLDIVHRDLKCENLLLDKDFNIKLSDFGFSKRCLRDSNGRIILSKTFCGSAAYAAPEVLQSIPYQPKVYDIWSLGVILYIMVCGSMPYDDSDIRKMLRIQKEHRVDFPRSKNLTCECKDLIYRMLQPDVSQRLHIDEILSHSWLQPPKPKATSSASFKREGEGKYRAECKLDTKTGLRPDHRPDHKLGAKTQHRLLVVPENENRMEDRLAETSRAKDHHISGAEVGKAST

Chain of EGFR(L861Q)(h) (P00533 25-1210 L861Q): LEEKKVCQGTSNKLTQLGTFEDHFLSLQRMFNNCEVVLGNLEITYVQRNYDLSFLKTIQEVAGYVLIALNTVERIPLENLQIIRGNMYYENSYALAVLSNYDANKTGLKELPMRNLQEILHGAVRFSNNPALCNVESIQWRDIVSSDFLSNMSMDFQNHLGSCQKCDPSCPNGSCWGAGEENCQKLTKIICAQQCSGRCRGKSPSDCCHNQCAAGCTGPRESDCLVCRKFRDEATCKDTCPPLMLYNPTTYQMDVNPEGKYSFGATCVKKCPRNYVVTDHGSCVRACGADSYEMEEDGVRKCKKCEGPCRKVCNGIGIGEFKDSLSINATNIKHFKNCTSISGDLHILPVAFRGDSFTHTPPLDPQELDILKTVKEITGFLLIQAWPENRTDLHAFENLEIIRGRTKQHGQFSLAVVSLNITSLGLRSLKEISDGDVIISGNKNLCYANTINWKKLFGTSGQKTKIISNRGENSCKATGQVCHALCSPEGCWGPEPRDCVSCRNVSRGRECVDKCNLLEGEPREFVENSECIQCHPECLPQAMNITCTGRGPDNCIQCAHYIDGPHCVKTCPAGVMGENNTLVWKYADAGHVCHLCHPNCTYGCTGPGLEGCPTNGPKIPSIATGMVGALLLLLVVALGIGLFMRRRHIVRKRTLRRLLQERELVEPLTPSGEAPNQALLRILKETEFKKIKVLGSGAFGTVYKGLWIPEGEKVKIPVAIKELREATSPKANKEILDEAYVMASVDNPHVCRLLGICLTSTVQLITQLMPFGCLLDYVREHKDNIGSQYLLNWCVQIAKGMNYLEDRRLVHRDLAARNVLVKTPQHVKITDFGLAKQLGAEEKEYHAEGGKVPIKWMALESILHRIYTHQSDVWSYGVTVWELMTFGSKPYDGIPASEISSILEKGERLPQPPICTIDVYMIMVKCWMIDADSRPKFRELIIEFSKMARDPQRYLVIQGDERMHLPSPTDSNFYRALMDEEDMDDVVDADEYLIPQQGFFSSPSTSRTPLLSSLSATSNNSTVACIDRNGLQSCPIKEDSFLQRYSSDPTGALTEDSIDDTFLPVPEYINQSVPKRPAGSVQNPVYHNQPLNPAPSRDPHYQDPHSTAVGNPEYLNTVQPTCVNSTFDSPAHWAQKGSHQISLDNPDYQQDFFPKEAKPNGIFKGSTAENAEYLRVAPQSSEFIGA
Chain of CDK1/cyclinB(h) (P06493 whole entry): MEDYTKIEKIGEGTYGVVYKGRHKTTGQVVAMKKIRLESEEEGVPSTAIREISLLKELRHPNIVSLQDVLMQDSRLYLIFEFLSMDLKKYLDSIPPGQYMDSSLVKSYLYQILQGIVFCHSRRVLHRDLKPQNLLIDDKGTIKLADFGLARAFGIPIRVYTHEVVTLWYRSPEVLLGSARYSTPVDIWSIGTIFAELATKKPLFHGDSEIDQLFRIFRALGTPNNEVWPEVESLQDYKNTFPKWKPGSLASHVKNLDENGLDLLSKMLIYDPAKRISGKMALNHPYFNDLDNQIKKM
Chain of CDK1/cyclinB(h) (P14635 whole entry partner): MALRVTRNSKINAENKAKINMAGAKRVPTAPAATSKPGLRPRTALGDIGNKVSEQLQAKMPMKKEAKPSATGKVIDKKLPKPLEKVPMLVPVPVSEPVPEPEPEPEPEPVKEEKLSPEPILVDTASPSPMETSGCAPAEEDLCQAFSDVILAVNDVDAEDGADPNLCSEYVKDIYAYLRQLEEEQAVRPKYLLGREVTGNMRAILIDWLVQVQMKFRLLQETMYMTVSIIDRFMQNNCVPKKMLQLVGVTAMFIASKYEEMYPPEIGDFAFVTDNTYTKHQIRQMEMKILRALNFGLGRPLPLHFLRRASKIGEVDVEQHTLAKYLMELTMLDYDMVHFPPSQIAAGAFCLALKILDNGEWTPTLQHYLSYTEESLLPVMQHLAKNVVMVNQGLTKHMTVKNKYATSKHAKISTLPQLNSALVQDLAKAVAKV
Chain of Fer(h) (P16591 whole entry): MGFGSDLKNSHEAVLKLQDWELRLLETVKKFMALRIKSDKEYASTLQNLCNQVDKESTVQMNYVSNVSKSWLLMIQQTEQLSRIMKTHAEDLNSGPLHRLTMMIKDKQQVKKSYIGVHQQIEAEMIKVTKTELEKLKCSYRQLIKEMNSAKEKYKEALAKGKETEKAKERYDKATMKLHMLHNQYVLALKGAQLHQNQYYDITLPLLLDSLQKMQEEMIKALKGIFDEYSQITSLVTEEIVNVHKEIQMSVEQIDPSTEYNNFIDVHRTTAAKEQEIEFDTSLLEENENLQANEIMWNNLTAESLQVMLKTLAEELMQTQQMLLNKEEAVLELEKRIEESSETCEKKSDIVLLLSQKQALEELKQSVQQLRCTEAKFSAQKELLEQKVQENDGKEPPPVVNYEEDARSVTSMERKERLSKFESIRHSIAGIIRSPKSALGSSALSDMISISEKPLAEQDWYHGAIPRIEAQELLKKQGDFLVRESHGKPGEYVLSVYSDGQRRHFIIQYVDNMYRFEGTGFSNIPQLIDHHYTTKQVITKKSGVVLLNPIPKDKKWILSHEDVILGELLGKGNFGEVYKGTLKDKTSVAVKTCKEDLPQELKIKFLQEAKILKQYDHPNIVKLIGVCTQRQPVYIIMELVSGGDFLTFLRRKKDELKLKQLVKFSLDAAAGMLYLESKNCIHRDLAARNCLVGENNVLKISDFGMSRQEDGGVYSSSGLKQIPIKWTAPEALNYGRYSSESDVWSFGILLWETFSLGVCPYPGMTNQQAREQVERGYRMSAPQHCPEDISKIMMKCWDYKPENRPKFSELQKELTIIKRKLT
Chain of MSK2(h) (O75676 whole entry): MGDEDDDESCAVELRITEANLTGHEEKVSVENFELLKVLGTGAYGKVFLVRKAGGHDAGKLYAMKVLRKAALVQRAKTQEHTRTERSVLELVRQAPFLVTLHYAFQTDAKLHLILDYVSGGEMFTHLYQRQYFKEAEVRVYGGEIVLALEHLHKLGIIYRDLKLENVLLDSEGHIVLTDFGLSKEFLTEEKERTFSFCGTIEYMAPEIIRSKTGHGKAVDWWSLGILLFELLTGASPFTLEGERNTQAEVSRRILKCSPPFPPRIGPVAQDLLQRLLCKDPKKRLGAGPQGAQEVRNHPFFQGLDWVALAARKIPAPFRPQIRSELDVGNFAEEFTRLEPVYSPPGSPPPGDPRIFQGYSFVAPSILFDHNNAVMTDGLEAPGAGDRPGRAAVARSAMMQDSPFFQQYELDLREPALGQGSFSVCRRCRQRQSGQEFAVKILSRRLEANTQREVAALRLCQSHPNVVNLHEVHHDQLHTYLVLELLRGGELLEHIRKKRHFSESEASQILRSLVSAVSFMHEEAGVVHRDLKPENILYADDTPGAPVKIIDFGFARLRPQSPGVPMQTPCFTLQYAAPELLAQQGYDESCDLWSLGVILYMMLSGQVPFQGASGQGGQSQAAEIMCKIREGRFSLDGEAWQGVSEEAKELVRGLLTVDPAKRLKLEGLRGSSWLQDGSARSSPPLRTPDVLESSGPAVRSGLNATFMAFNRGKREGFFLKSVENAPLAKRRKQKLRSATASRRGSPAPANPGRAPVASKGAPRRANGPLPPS
Chain of cKit(h) (P10721 26-976): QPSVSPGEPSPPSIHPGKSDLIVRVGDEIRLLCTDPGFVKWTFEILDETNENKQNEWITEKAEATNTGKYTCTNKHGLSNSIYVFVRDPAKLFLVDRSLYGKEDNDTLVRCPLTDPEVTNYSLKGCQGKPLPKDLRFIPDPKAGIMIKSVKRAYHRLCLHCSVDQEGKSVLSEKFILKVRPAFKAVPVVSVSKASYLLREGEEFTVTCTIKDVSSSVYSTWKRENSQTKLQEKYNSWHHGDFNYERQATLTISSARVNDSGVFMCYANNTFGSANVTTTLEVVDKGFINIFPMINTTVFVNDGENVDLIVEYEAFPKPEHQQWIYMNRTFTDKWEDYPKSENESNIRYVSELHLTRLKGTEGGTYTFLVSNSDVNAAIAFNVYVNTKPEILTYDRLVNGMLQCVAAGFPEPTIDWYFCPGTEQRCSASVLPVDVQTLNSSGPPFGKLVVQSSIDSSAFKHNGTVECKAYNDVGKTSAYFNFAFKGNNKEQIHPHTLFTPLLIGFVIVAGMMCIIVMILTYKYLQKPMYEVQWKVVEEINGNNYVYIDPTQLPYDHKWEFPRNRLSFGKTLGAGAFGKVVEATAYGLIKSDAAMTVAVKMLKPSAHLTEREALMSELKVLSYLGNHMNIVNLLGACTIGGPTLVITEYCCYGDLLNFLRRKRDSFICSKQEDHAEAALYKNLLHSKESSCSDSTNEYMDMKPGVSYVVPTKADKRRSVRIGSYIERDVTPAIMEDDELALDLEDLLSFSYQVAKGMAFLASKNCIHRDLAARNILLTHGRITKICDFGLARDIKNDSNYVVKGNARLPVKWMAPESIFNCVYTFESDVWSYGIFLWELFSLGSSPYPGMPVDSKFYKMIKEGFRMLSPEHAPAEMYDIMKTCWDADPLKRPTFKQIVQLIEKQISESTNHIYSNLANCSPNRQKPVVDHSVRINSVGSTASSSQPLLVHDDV

## CC(C)CCC(=O)[C@]1(O)C(O)=C(C(=O)C(C)C)C(=O)[C@H]1CCC(C)C [TH2, tetrahydroiso-cohumulone]
CDK1/cyclinB(h); 1 μg/ml
  kinase inhibition: 111% of control
CDK1/cyclinB(h); 5 μg/ml
  kinase inhibition: 111% of control
CDK1/cyclinB(h); 25 μg/ml
  kinase inhibition: 90% of control
CDK1/cyclinB(h); 50 μg/ml
  kinase inhibition: 86% of control
CDK1/cyclinB(h); 100 μg/ml
  kinase inhibition: 74% of control
CDK9/cyclin T1(h); 1 μg/ml
  kinase inhibition: 99% of control
CDK9/cyclin T1(h); 5 μg/ml
  kinase inhibition: 102% of control
CDK9/cyclin T1(h); 25 μg/ml
  kinase inhibition: 78% of control
CDK9/cyclin T1(h); 50 μg/ml
  kinase inhibition: 63% of control
CDK9/cyclin T1(h); 100 μg/ml
  kinase inhibition: 49% of control
cKit(h); 1 μg/ml
  kinase inhibition: 110% of control
cKit(h); 5 μg/ml
  kinase inhibition: 87% of control
cKit(h); 25 μg/ml
  kinase inhibition: 86% of control
cKit(h); 50 μg/ml
  kinase inhibition: 96% of control
cKit(h); 100 μg/ml
  kinase inhibition: 95% of control
EGFR(L861Q)(h); 1 μg/ml
  kinase inhibition: 98% of control
EGFR(L861Q)(h); 5 μg/ml
  kinase inhibition: 91% of control
EGFR(L861Q)(h); 25 μg/ml
  kinase inhibition: 94% of control
EGFR(L861Q)(h); 50 μg/ml
  kinase inhibition: 99% of control
EGFR(L861Q)(h); 100 μg/ml
  kinase inhibition: 93% of control
Fer(h); 1 μg/ml
  kinase inhibition: 110% of control
Fer(h); 5 μg/ml
  kinase inhibition: 102% of control
Fer(h); 25 μg/ml
  kinase inhibition: 104% of control
Fer(h); 50 μg/ml
  kinase inhibition: 91% of control
Fer(h); 100 μg/ml
  kinase inhibition: 88% of control
Flt3(D835Y)(h); 1 μg/ml
  kinase inhibition: 108% of control
Flt3(D835Y)(h); 5 μg/ml
  kinase inhibition: 116% of control
Flt3(D835Y)(h); 25 μg/ml
  kinase inhibition: 102% of control
Flt3(D835Y)(h); 50 μg/ml
  kinase inhibition: 105% of control
Flt3(D835Y)(h); 100 μg/ml
  kinase inhibition: 98% of control
MSK2(h); 1 μg/ml
  kinase inhibition: 99% of control
MSK2(h); 5 μg/ml
  kinase inhibition: 94% of control
MSK2(h); 25 μg/ml
  kinase inhibition: 70% of control
MSK2(h); 50 μg/ml
  kinase inhibition: 51% of control
MSK2(h); 100 μg/ml
  kinase inhibition: 37% of control
PKCβII(h); 1 μg/ml
  kinase inhibition: 107% of control
PKCβII(h); 5 μg/ml
  kinase inhibition: 105% of control
PKCβII(h); 25 μg/ml
  kinase inhibition: 99% of control
PKCβII(h); 50 μg/ml
  kinase inhibition: 103% of control
PKCβII(h); 100 μg/ml
  kinase inhibition: 98% of control
SGK2(h); 1 μg/ml
  kinase inhibition: 133% of control
SGK2(h); 5 μg/ml
  kinase inhibition: 116% of control
SGK2(h); 25 μg/ml
  kinase inhibition: 112% of control
SGK2(h); 50 μg/ml
  kinase inhibition: 121% of control
SGK2(h); 100 μg/ml
  kinase inhibition: 69% of control
TSSK2(h); 1 μg/ml
  kinase inhibition: 106% of control
TSSK2(h); 5 μg/ml
  kinase inhibition: 99% of control
TSSK2(h); 25 μg/ml
  kinase inhibition: 100% of control
TSSK2(h); 50 μg/ml
  kinase inhibition: 97% of control
TSSK2(h); 100 μg/ml
  kinase inhibition: 87% of control
